The results in this text go back to US9718828B2 (MERCK SHARP & DOHME CORP., priority 2011, dated 2017).

Counter-ions that a name gives are not always drawn.

The assay deals with hBTK (full-length BTK, 6HIS-tag cleaved) (Homo sapiens (Human), UniProt Q06187). Briefly: BTK enzymatic activity, LANCE TR-FRET assay (Assay Method C). It counts as biochemical. The conditions noted are these: LANCE TR-FRET, 50 pM hBTK, 25 μM ATP; class 100-1000 is given as ≧100 nM-<1 μM; read-out: IC50 Btk activity values - Assay Method C.
Sequence of hBTK (full-length BTK, 6HIS-tag cleaved) (Q06187 whole entry): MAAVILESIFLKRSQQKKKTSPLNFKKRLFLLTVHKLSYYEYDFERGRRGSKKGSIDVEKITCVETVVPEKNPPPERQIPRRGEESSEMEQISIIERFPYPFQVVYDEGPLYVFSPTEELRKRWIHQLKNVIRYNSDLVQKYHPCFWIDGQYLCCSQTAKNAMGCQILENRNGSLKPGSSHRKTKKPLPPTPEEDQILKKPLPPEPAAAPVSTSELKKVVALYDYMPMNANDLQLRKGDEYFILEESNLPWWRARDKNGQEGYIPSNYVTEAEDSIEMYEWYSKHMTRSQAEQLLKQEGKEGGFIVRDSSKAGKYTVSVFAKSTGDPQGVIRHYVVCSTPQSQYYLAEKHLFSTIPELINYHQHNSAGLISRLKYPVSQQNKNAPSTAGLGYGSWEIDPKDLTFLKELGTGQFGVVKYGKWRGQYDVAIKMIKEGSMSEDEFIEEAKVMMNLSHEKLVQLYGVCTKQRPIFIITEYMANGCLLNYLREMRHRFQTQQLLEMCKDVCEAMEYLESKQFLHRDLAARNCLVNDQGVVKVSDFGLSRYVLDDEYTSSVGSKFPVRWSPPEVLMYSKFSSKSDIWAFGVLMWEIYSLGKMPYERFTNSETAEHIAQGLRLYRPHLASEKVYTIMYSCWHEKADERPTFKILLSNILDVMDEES
For orientation: IC50 means the midpoint of a concentration-inhibition curve. Consider `CN(C)CC(=O)N1CCC[C@@H](c2nc(-c3ccc(C(=O)Nc4cc(C(F)(F)F)ccn4)cc3)c3c(N)nccn23)C1` [Example 347, 4-{8-amino-3-[(3R)-1-(N,N-dimethylglycyl)piperidin-3-yl]imidazo[1,5-a]pyrazin-1-yl}-N-[4-(trifluoromethyl)pyridin-2-yl]benzamide], for which the IC50 is below 0.01 µM.
Take `CCc1ccnc(NC(=O)c2ccc(-c3nc([C@@H]4CCCN(C(=O)C5(C)COC5)C4)n4c(C)cnc(N)c34)cc2)c1` [Example 455, 4-(8-amino-5-methyl-3-{(3R)-1-[(3-methyloxetan-3-yl)carbonyl]piperidin-3-yl}imidazo[1,5-a]pyrazin-1-yl)-N-(4-ethylpyridin-2-yl)benzamide]: the IC50 was below 0.01 µM.
Turning to `C[C@@H](O)c1cnc(N)c2c(-c3ccc(C(=O)Nc4cc(C(F)(F)F)ccn4)cc3)nc([C@@H]3CCCN(C(=O)C4(C)COC4)C3)n12` [Example 465, 4-(8-amino-5-[(1R)-1-hydroxyethyl]-3-{(3R)-1-[(3-methyloxetan-3-yl)carbonyl]piperidin-3-yl}imidazo[1,5-a]pyrazin-1-yl)-N-[4-(trifluoromethyl)pyridin-2-yl]benzamide], the IC50 is below 0.01 µM.
Regarding `COCC(=O)N1CCC[C@@H](c2nc(-c3ccc(C(=O)Nc4cc(C(F)(F)F)ccn4)cc3F)c3c(N)nccn23)C1` [Example 575, 4-{8-amino-3-[(3R)-1-(methoxyacetyl)piperidin-3-yl]imidazo[1,5-a]pyrazin-1-yl}-3-fluoro-N-[4-(trifluoromethyl)pyridin-2-yl]benzamide, TFA salt], the IC50 is below 0.01 µM.
For `Nc1nccn2c([C@H]3CN(C(=O)CO)CCO3)nc(-c3ccc(C(=O)Nc4cc(C(F)(F)F)ccn4)cc3)c12` [Example 517, 4-{8-amino-3-[(2R)-4-(hydroxyacetyl)morpholin-2-yl]imidazo[1,5-a]pyrazin-1-yl}-N-[4-(trifluoromethyl)pyridin-2-yl]benzamide], the IC50 is below 0.01 µM.
On to `Nc1nccn2c([C@H]3CN(CCO)CCO3)nc(-c3ccc(C(=O)Nc4cc(C(F)(F)F)ccn4)cc3)c12` [Example 492, (R)-4-(8-amino-3-(4-(2-hydroxyethyl)morpholin-2-yl)imidazo[1,5-a]pyrazin-1-yl)-N-(4-(trifluoromethyl)pyridin-2-yl)benzamide], for which the IC50 was below 0.01 µM.
Consider `COCCC(=O)N1C[C@H](c2nc(-c3ccc(C(=O)Nc4cc(C(F)(F)F)ccn4)c(F)c3)c3c(N)nccn23)CC[C@@H]1C` [Example 392, 4-{8-amino-3-[(3R,6S)-1-(3-methoxypropanoyl)-6-methylpiperidin-3-yl]imidazo[1,5-a]pyrazin-1-yl}-2-fluoro-N-[4-(trifluoromethyl)pyridin-2-yl]benzamide], for which the IC50 was below 0.01 µM.
As for `COCCOCC(=O)N1CCO[C@@H](c2nc(-c3ccc(C(=O)Nc4cc(C(F)(F)F)ccn4)cc3)c3c(N)ncc(Cl)n23)C1` [Example 529, 4-(8-amino-5-chloro-3-{(2R)-4-[(2-methoxyethoxy)acetyl]morpholin-2-yl}imidazo[1,5-a]pyrazin-1-yl)-N-[4-(trifluoromethyl)pyridin-2-yl]benzamide], the IC50 was below 0.01 µM.
To `Nc1nccn2c([C@@H]3CCCN(C(=O)CCC(F)(F)F)C3)nc(-c3ccc(C(=O)Nc4cc(C(F)(F)F)ccn4)cc3)c12` [Example 331, 4-{8-amino-3-[(3R)-1-(4,4,4-trifluorobutanoyl)piperidin-3-yl]imidazo[1,5-a]pyrazin-1-yl}-N-[4-(trifluoromethyl)pyridin-2-yl]benzamide] belongs below 0.01 µM; to `Nc1ncc(Cl)n2c([C@@H]3CCCN(C=O)C3)nc(-c3ccc(C(=O)Nc4cc(C(F)(F)F)ccn4)cc3)c12` [Example 443, 4-{8-amino-5-chloro-3-[(3R)-1-formylpiperidin-3-yl]imidazo[1,5-a]pyrazin-1-yl}-N-[4-(trifluoromethyl)pyridin-2-yl]benzamide], below 0.01 µM.
With `Nc1nccn2c(C3CCC(C(F)(F)F)N(C(=O)C4CC4)C3)nc(-c3ccc(C(=O)Nc4cc(C(F)(F)F)ccn4)cc3F)c12` (centres unmarked) [Example 399, 4-{8-amino-3-[1-(cyclopropylcarbonyl)-6-(trifluoromethyl)piperidin-3-yl]imidazo[1,5-a]pyrazin-1-yl}-3-fluoro-N-[4-(trifluoromethyl)pyridin-2-yl]benzamide], the IC50 was below 0.01 µM.
As to `Cc1cnc(N)c2c(-c3ccc(C(=O)Nc4cc(C(F)(F)F)ccn4)cc3)nc([C@H]3CN(Cc4cnn(C)c4)CCO3)n12` [Example 509, 4-(8-amino-5-methyl-3-{(2R)-4-[(1-methyl-1H-pyrazol-4-yl)methyl]morpholin-2-yl}imidazo[1,5-a]pyrazin-1-yl)-N-[4-(trifluoromethyl)pyridin-2-yl]benzamide], the half-maximal inhibitory concentration (IC50) was below 0.01 µM.
To `CN1CCC[C@H]1C(=O)N1CCC[C@@H](c2nc(-c3ccc(C(=O)Nc4cc(C(F)(F)F)ccn4)cc3)c3c(N)nccn23)C1` [Example 341, 4-{8-amino-3-[(3R)-1-(1-methyl-L-prolyl)piperidin-3-yl]imidazo[1,5-a]pyrazin-1-yl}-N-[4-(trifluoromethyl)pyridin-2-yl]benzamide] belongs below 0.01 µM; to `Nc1nccn2c([C@@H]3CCCN(C(=O)c4cnsc4)C3)nc(-c3ccc(C(=O)Nc4cc(C(F)(F)F)ccn4)cc3)c12` [Example 333, 4-{8-amino-3-[(3R)-1-(isothiazol-4-ylcarbonyl)piperidin-3-yl]imidazo[1,5-a]pyrazin-1-yl}-N-[4-(trifluoromethyl)pyridin-2-yl]benzamide], below 0.01 µM.
The result for `Nc1ncnc2c1c(-c1ccc(C(=O)Nc3cc(C(F)(F)F)ccn3)cc1)nn2[C@@H]1CCCc2nn(CCO)cc21` [Example 562, 4-{4-amino-1-[(4R)-2-(2-hydroxyethyl)-4,5,6,7-tetrahydro-2H-indazol-4-yl]-1H-pyrazolo[3,4-d]pyrimidin-3-yl}-N-[4-(trifluoromethyl)pyridin-2-yl]benzamide, TFA salt] reads below 0.01 µM; that for `Cc1ccnc(NC(=O)c2ccc(-c3nc([C@H]4CC[C@H](C(F)(F)F)N(C(=O)C5CC5)C4)n4ccnc(N)c34)cc2)c1` [Example 425, 4-{8-amino-3-[(3S,6R)-1-(cyclopropylcarbonyl)-6-(trifluoromethyl)piperidin-3-yl]imidazo[1,5-a]pyrazin-1-yl}-N-(4-methylpyridin-2-yl)benzamide], below 0.01 µM.
Regarding `Nc1ncc(Cl)n2c([C@H]3CNCCO3)nc(-c3ccc(C(=O)Nc4cc(C(F)(F)F)ccn4)cc3)c12` [Example 504, 4-{8-amino-5-chloro-3-[(2R)-morpholin-2-yl]imidazo[1,5-a]pyrazin-1-yl}-N-[4-(trifluoromethyl)pyridin-2-yl]benzamide], the 50% inhibitory concentration (IC50) is below 0.01 µM.
Regarding `CCOCC(=O)N1CCO[C@@H](c2nc(-c3ccc(C(=O)Nc4cc(C(F)(F)F)ccn4)cc3)c3c(N)ncc(C)n23)C1` [Example 537, 4-{8-amino-3-[(2R)-4-(ethoxyacetyl)morpholin-2-yl]-5-methylimidazo[1,5-a]pyrazin-1-yl}-N-[4-(trifluoromethyl)pyridin-2-yl]benzamide, TFA salt], the 50% inhibitory concentration (IC50) was below 0.01 µM.
Consider `CS(=O)(=O)CC(=O)N1CCC[C@@H](c2nc(-c3ccc(C(=O)Nc4cc(C(F)(F)F)ccn4)cc3)c3c(N)nccn23)C1` [Example 349, 4-(8-amino-3-{(3R)-1-[(methylsulfonyl)acetyl]piperidin-3-yl}imidazo[1,5-a]pyrazin-1-yl)-N-[4-(trifluoromethyl)pyridin-2-yl]benzamide], for which the IC50 was below 0.01 µM.
On to `N#CCN1CCO[C@@H](c2nc(-c3ccc(C(=O)Nc4cc(C(F)(F)F)ccn4)cc3)c3c(N)ncc(Cl)n23)C1` [Example 533, 4-{8-amino-5-chloro-3-[(2R)-4-(cyanomethyl)morpholin-2-yl]imidazo[1,5-a]pyrazin-1-yl}-N-[4-(trifluoromethyl)pyridin-2-yl]benzamide], for which the IC50 was below 0.01 µM.
The result for `CC1(C(=O)N2CCC[C@@H](c3nc(-c4ccc(C(=O)Nc5ncns5)cc4)c4c(N)nccn34)C2)COC1` [Example 368, 4-(8-amino-3-{(3R)-1-[(3-methyloxetan-3-yl)carbonyl]piperidin-3-yl}imidazo[1,5-a]pyrazin-1-yl)-N-1,2,4-thiadiazol-5-ylbenzamide] reads 0.01 to 0.1 µM; that for `Cc1noc(C)c1C(=O)N1CCC[C@@H](c2nc(-c3ccc(C(=O)Nc4cc(C(F)(F)F)ccn4)cc3)c3c(N)nccn23)C1` [Example 328], below 0.01 µM; that for `COCCN1CCO[C@@H](c2nc(-c3ccc(C(=O)Nc4cc(C(F)(F)F)ccn4)cc3)c3c(N)nccn23)C1` [Example 491, (R)-4-(8-amino-3-(4-(2-methoxyethyl)morpholin-2-yl)imidazo[1,5-a]pyrazin-1-yl)-N-(4-(trifluoromethyl)pyridin-2-yl)benzamide], below 0.01 µM.
In the case of `Cn1ncc2c1CCC[C@H]2n1nc(-c2ccc(C(=O)Nc3cc(C(F)(F)F)ccn3)cc2)c2c(N)ncnc21` [Example 552, 4-{4-amino-1-[(4R)-1-methyl-4,5,6,7-tetrahydro-1H-indazol-4-yl]-1H-pyrazolo[3,4-d]pyrimidin-3-yl}-N-[4-(trifluoromethyl)pyridin-2-yl]benzamide, TFA salt], the 50% inhibitory concentration (IC50) is below 0.01 µM.
On to `C[C@H]1CC[C@@H](c2nc(-c3ccc(C(=O)Nc4cc(OCC(F)(F)F)ccn4)cc3)c3c(N)nccn23)CN1C(=O)C1(C)COC1` [Example 418, 4-(8-amino-3-{(3R,6S)-6-methyl-1-[(3-methyloxetan-3-yl)carbonyl]piperidin-3-yl}imidazo[1,5-a]pyrazin-1-yl)-N-[4-(2,2,2-trifluoroethoxy)pyridin-2-yl]benzamide], for which the IC50 is below 0.01 µM.
To `COCc1cnc(N)c2c(-c3ccc(C(=O)Nc4cc(C(F)(F)F)ccn4)cc3F)nc([C@@H]3CCCN(C(=O)C4(C)COC4)C3)n12` [Example 451, 4-[8-amino-5-(methoxymethyl)-3-{(3R)-1-[(3-methyloxetan-3-yl)carbonyl]piperidin-3-yl}imidazo[1,5-a]pyrazin-1-yl]-3-fluoro-N-[4-(trifluoromethyl)pyridin-2-yl]benzamide] belongs below 0.01 µM.
